These results are taken from PubChem BioAssay (NCI).

Test systems include COLO 205 colon; MCF7 breast; MALME-3M melanoma; A498 renal; OVCAR-4 ovarian; SK-OV-3 ovarian; SNB-19 CNS; KM12 colon; RPMI-8226 leukemia; SNB-75 CNS.
Holding throughout (assay): DTP human tumour cell line panel, 48 h

SMILES strings stand for the structures.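 In this assay, cells in 96-well plates receive the compound at five concentrations for 48 hours. Endpoints are linearly interpolated between the surrounding concentrations. Here, GI50 denotes the concentration required for 50% inhibition of growth. At the TGI there is no net growth.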

A word on the GI50: it is the concentration that inhibits growth by half. In general, TGI refers to the concentration giving total growth inhibition. A lower TGI goes with more potent growth arrest. With `Nc1cc(N)c2nc(-c3ccccc3)c(Nc3ccc(Cl)c(Cl)c3)nc2c1`, the GI50 was 11.7 µM with COLO 205 colon; 4.96 µM with MCF7 breast; 10.3 µM with MALME-3M melanoma; 12.1 µM with A498 renal; 11.1 µM in the test on OVCAR-4 ovarian; 13.7 µM in the test with SK-OV-3 ovarian. The GI50 in the test on SNB-19 CNS is 12.9 µM; in the test on KM12 colon, 5.89 µM; in the test on RPMI-8226 leukemia, 2 µM. Besides, the TGI in the test on COLO 205 colon was 31.3 µM; with MCF7 breast, 21.1 µM; in the test on MALME-3M melanoma it was 24.3 µM; with A498 renal, 26.3 µM; in the test with OVCAR-4 ovarian, 47.8 µM; in the test with SK-OV-3 ovarian it was 31.3 µM. Also, the TGI in the test on SNB-19 CNS turned out to be 30.2 µM; in the test on KM12 colon, 24.6 µM; in the test on RPMI-8226 leukemia, 4.92 µM.

In the case of `Nc1nc(Cl)c2ncn(Cc3ccc(C45CC6CC(CC(C6)C4)C5)c(O)c3)c2n1`, the GI50 in the test with COLO 205 colon was 5.43 µM; in the test on MCF7 breast it was 3.14 µM; with MALME-3M melanoma, 2.22 µM; in the test with A498 renal, 8.15 µM; in the test with OVCAR-4 ovarian, 0.991 µM; with SK-OV-3 ovarian it was 5.64 µM. Also, the results for the GI50 in the test on SNB-75 CNS, with SNB-19 CNS and with KM12 colon were 3.88 µM, 6.53 µM and 2.49 µM, respectively. Further, the TGI in the test on COLO 205 colon worked out at 27.8 µM; in the test on MCF7 breast, 13 µM; with MALME-3M melanoma, 16.3 µM; in the test with A498 renal, 24.4 µM; in the test with OVCAR-4 ovarian, 3.82 µM; in the test with SK-OV-3 ovarian, 21.4 µM. Further, the results for the TGI with SNB-75 CNS, with SNB-19 CNS and in the test on KM12 colon were 28.9 µM, 22.8 µM and 15.3 µM, respectively.

`COC1/C=C\C=C(/C)C(=O)NC2=CC(=O)C(=O)C(=C2O)CC(C)CC(OC)C(O)C(C)/C=C(\C)C1OC(N)=O` (configuration not stated): the TGI in the test with COLO 205 colon was 13.3 µM; in the test on MCF7 breast, over 42.4 µM; in the test on MALME-3M melanoma, 21.7 µM; with A498 renal, over 100 µM; in the test on OVCAR-4 ovarian it was 22.1 µM; in the test on SK-OV-3 ovarian, over 100 µM. For the same compound, the results for the TGI in the test on SNB-19 CNS, in the test on KM12 colon and in the test with RPMI-8226 leukemia were over 100 µM, 5.57 µM and 33.5 µM, respectively.

Take `COc1ccc(-c2cnnc3c(-c4cccc(C(F)(F)F)c4)cnn23)cc1`: the GI50 was over 100 µM with COLO 205 colon; over 100 µM in the test on MCF7 breast; 3.52 µM in the test with A498 renal; 3.5 µM with SK-OV-3 ovarian; 1.51 µM with SNB-75 CNS; 2.45 µM in the test on SNB-19 CNS. Also, the GI50 in the test with KM12 colon is over 100 µM; with RPMI-8226 leukemia it was 2.72 µM. For the same compound, the total growth inhibition concentration (TGI) with COLO 205 colon is over 100 µM; in the test with MCF7 breast, over 100 µM; with A498 renal, 62.6 µM; with SK-OV-3 ovarian, over 100 µM; in the test on SNB-75 CNS, 4.6 µM; in the test on SNB-19 CNS, 7.44 µM. In addition, the TGI in the test with KM12 colon and in the test on RPMI-8226 leukemia was over 100 µM in each case.

With `NC(=O)c1ccc(I)c(N)c1`, the GI50 with COLO 205 colon, in the test on MCF7 breast, in the test on MALME-3M melanoma, in the test on OVCAR-4 ovarian, with SK-OV-3 ovarian and in the test on SNB-75 CNS was over 100 µM throughout. Moreover, the GI50 with SNB-19 CNS, with KM12 colon and with RPMI-8226 leukemia was over 100 µM each time. Also, the TGI with COLO 205 colon, with MCF7 breast, in the test on MALME-3M melanoma, with OVCAR-4 ovarian, with SK-OV-3 ovarian and in the test on SNB-75 CNS was over 100 µM each time. Further, the concentration for total growth inhibition (TGI) with SNB-19 CNS, with KM12 colon and in the test with RPMI-8226 leukemia was over 100 µM each time.

As to `CC/C(=C(/c1ccc(O)cc1)c1ccc(OCCNC)cc1)c1ccccc1`, the GI50 in the test with COLO 205 colon was 1.97 µM; with MCF7 breast, 0.0324 µM; with A498 renal, 1.64 µM; in the test on OVCAR-4 ovarian, 3.32 µM; in the test on SK-OV-3 ovarian it was 3.45 µM; with SNB-75 CNS, 1.43 µM. The GI50 with SNB-19 CNS was 3.12 µM; in the test on KM12 colon it was 1.87 µM; in the test with RPMI-8226 leukemia it was 2.05 µM. The TGI was 3.59 µM in the test with COLO 205 colon; 2.95 µM in the test on MCF7 breast; 6.55 µM with A498 renal; 15.4 µM with OVCAR-4 ovarian; 12 µM with SK-OV-3 ovarian; 5.24 µM in the test on SNB-75 CNS. In addition, the TGI in the test on SNB-19 CNS was 11.9 µM; in the test with KM12 colon, 3.83 µM; with RPMI-8226 leukemia it was 4.64 µM.

Regarding `CCC(C)c1c(Cl)nc(Cl)nc1Cl` (configuration not stated), the TGI in the test with MCF7 breast was 22 µM; in the test with MALME-3M melanoma, over 100 µM; in the test with OVCAR-4 ovarian, 46.2 µM; in the test on SK-OV-3 ovarian, over 100 µM; in the test with SNB-75 CNS, 26.8 µM; in the test on SNB-19 CNS it was 30.7 µM. For the same compound, the TGI with KM12 colon was 10.6 µM; in the test on RPMI-8226 leukemia, over 100 µM.

With `O=c1/c(=C/c2ccco2)sc2nc3ccccc3n12`, the TGI in the test with COLO 205 colon, in the test with MALME-3M melanoma, in the test with A498 renal, in the test with OVCAR-4 ovarian, with SK-OV-3 ovarian and in the test on SNB-75 CNS was over 100 µM in each case. Besides, the TGI with SNB-19 CNS, in the test with KM12 colon and in the test with RPMI-8226 leukemia was over 100 µM in each case. Also, the GI50 was over 100 µM in the test with MALME-3M melanoma; over 100 µM in the test on A498 renal; over 100 µM in the test on OVCAR-4 ovarian; over 10 µM in the test on SNB-75 CNS; over 100 µM in the test with SNB-19 CNS; over 100 µM in the test with RPMI-8226 leukemia.

Consider `O=C(/C=C/c1c(O)ccc2ccccc12)c1cccc(O)c1`, for which the TGI with COLO 205 colon, in the test with MALME-3M melanoma, with A498 renal, in the test with OVCAR-4 ovarian, in the test with SK-OV-3 ovarian and in the test with SNB-75 CNS was over 100 µM in each case. For the same compound, the TGI in the test on SNB-19 CNS, with KM12 colon and in the test on RPMI-8226 leukemia was over 100 µM each time.

Consider `COc1cc(C2NC(=O)c3ccccc3N2)ccc1OCCCCCOc1c(OC)cc(C2=NOC(c3cc(OC)c(OC)c(OC)c3)C2)cc1OC` (configuration not stated), for which the GI50 in the test on COLO 205 colon was over 59 µM; in the test with MCF7 breast, 0.356 µM; in the test with A498 renal, 19.5 µM; with OVCAR-4 ovarian, 0.417 µM; with SK-OV-3 ovarian, 31.1 µM; in the test on SNB-75 CNS it was 19.6 µM. For the same compound, the GI50 was 16.6 µM in the test with SNB-19 CNS, 7.59 µM with KM12 colon and 0.0754 µM in the test with RPMI-8226 leukemia. Moreover, the TGI was over 100 µM in the test on COLO 205 colon; over 100 µM in the test with MCF7 breast; over 76.8 µM in the test on A498 renal; over 100 µM in the test on OVCAR-4 ovarian; over 100 µM in the test with SK-OV-3 ovarian; over 100 µM with SNB-75 CNS. Also, the TGI was over 88.8 µM in the test on SNB-19 CNS, 98.8 µM in the test with KM12 colon and 1.1 µM in the test on RPMI-8226 leukemia.
